For experiment [1], the system named is aldose reductase. Particulars: literature report; cited from earlier work.
For experiment [2], the target named is T1, aldose reductase (Bos taurus, UniProt P16116).
T1 construct: preparation of the enzyme from bovine lens; from tissue; host or cells: bovine lens
Kind of experiment: in vitro aldose reductase inhibition (modified Hayman and Kinoshita procedure, enzyme from bovine lens). The class given is biochemical. Particulars: read-out: % Inhibition at Different Molar Concentrations (in vitro); for inhibition at 10 µM: 10^-5 molar; for inhibition at 1 µM: 10^-6 molar; for inhibition at 0.1 µM: 10^-7 molar. The protocol: In the present case the procedure of Hayman and Kinoshita is modified in that the final chromatography step is omitted in the preparation of the enzyme from bovine lens.
The following results were obtained when the compounds of this invention were evaluated in the above in vitro test.

In the case of `O=C(O)CN1C(=O)c2cccc3cccc(c23)C1=O` [1,3-Dioxo-1H-benz[de]isoquinoline-2(3H)-acetic acid], in the experiment on aldose reductase [1], the “inhibition of aldose reductase (in words)” value is recorded as “effective inhibitor of aldose reductase”.

Take `CN(CC(=O)O)C(=S)c1ccc2c(Br)cccc2c1` [CH3 5-Br, N-[(5-bromo-2-naphthalenyl)thioxomethyl]-N-methylglycine]: on aldose reductase [2], the inhibition at 10 µM was determined as 87%, the inhibition at 1 µM was determined as 70% and the inhibition at 0.1 µM turned out to be 21%.

With `CN(CC(=O)O)C(=S)c1ccc2cc(Br)ccc2c1` [CH3 6-Br, N-[(6-Bromo-2-naphthalenyl)thioxomethyl]-N-methylglycine], at aldose reductase [2], the inhibition at 10 µM was determined as 84%, the inhibition at 1 µM came to 60% and the inhibition at 0.1 µM is 19%.

`O=C1NC(=O)[C@@]2(CCOc3ccc(F)cc32)N1` [sorbinil, (S)-6-Fluoro-2,3-dihydrospiro(4H-1-benzopyran-4,4'-imidazolidine)-2',5'-dione]: in the experiment with aldose reductase [1], the “inhibition of aldose reductase (in words)” value is on record as “aldose reductase inhibiting properties”.

The values above are taken from US4447452A, “N[(2-Naphthalenyl)thioxomethyl]glycine derivatives” (Ayerst, McKenna & Harrison Inc., priority 1981, dated 1984).
